{"source": "patent US20240239766A1", "about": "“3-AMINO PIPERIDYL SODIUM CHANNEL INHIBITORS” (Genentech, Inc., priority 2021, published 2024)", "note": "Structures can show the parent of a compound that is named as a salt.", "data": [{"molecular_target": "hNav1.7 (Homo sapiens (Human), UniProt Q15858)", "sequence (Q15858 other isoform, or with tags, fused parts or gaps)": "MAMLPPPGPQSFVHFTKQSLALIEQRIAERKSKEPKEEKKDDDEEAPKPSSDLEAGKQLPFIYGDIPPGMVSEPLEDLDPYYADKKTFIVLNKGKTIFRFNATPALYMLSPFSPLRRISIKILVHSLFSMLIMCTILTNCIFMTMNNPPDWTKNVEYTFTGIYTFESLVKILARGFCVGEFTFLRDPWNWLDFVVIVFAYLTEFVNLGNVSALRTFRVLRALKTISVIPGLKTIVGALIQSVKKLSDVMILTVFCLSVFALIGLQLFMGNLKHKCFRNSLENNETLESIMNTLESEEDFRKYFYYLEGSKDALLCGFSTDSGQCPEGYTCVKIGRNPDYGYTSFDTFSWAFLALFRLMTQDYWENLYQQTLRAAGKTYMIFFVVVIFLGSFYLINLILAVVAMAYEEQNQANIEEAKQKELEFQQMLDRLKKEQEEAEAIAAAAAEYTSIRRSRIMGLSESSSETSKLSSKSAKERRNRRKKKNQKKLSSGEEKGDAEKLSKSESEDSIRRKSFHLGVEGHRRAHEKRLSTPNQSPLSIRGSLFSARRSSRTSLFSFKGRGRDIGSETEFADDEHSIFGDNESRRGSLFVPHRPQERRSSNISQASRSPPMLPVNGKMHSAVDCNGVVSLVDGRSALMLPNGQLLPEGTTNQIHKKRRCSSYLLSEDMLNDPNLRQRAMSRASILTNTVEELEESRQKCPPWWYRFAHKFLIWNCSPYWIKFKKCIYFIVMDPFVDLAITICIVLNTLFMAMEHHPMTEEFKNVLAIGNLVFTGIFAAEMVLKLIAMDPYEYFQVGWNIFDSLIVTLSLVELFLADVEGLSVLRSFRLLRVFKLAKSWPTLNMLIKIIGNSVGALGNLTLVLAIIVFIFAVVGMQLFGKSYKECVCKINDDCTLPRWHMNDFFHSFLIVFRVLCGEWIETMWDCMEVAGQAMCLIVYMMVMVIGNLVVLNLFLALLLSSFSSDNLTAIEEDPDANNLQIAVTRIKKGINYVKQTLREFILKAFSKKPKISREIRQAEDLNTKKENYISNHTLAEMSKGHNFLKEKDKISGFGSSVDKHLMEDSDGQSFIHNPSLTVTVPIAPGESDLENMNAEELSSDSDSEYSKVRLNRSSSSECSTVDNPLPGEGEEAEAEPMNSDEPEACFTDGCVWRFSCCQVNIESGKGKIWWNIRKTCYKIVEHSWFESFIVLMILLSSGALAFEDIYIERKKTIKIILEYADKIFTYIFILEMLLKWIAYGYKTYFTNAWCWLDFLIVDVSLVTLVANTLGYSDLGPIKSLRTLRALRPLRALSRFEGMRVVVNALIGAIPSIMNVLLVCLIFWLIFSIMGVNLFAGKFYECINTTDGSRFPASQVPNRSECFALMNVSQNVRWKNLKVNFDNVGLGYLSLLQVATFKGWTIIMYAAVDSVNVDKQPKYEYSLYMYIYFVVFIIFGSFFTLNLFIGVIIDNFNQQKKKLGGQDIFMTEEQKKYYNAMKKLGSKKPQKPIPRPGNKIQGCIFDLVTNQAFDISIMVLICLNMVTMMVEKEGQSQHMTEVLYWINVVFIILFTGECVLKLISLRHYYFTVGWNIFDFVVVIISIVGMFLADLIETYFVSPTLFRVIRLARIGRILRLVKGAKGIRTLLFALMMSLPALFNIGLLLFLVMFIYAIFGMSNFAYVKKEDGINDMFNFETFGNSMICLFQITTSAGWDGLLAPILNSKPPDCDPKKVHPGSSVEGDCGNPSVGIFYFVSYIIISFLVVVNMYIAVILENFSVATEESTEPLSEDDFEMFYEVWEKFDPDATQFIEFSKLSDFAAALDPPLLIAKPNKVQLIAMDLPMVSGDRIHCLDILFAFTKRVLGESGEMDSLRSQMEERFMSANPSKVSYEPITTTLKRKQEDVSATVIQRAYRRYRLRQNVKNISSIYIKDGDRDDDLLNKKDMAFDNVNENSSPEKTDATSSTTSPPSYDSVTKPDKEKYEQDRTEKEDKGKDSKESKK", "test": "Patch voltage clamp electrophysiology assay (EP), Syncropatch 384PE, CHO cells expressing Nav1.7", "format": "cell-based", "details": "holding potential −50 mV; 7.5 min compound incubation; read-out: EP SP hNav1.7 EVO (IC50)", "excerpt": "Example 101c: Electrophysiological Assay (EP) (In Vitro Assay)\nPatch voltage clamp electrophysiology allows for the direct measurement and quantification of block of voltage-gated sodium channels (NaV's), and allows the determination of the time- and voltage-dependence of block which has been interpreted as differential binding to the resting, open, and inactivated states of the sodium channel (Hille, B., Journal of General Physiology (1977), 69: 497-515).\nThe following voltage clamp electrophysiology studies are performed on representative compounds using cells heterologously expressing Nav1.7 or Nav1.5 channels. cDNAsfor Nav1.7 (NM_002977) and Nav1.5 (AC137587) are stably expressed in Chinese Hamstr Ovary (CHO) cells and CHL (Chinese Hamster Lung) cells respectively. Sodium currents are measured in the whole-cell configuration using Syncropatch 384PE (Nanlon Technologies, Germany). 1NPC®-384 chips with custom medium resistance and single hole mode are used. Internal solution consists of (in mM): […], 10 CsCl, 20 EGTA, and 10 Hepes (pH adjusted to 7.2); and external solution contains (in mM): 60 NMDG, 80 NaCl, 4 KCl, 1 MgCl2, 2 CaCl2), 2 D-Glucose monohydrate, 10 Hepes (pH adjusted to 7.4 with NaOH).\nAfter system flushing, testing compounds are dissolved in external solution containing 0.1% Pluronic F-127. The chip is moved into the measuring head and the instrument primes the chip with external and internal solutions. 10 μl cells are added to the chip from a cell hotel, and a negative pressure of −50 mBar is applied to form a seal. Following treatment with seal enhancer solution and wash-off with external solution, negative pressure of −250 mbar is applied for 1 second to achieve the whole-cell configuration, followed by three washing steps in external solution. 20 μl of compounds is added to 40 μl in each well (1:3 dilution of compounds), and after mixing, 20 μl is removed so the volume is retained at 40 ul. After approximately 13 minutes recordings, 20 μl/well of 2 uM TTX, or 333 uM Tetracaine (for Nav1.5) is added to achieve full block.\nFor voltage protocol, an holding potential of −50 mV is applied during the whole experiment. A depolarizing step is applied to −10 mV for 10 ms, followed by a hyperpolarization step to −150 mV for 20 ms to allow channel recovery from inactivation. A second depolarizing step is applied from −150 mV to −10 mV for 10 ms, where currents are measured to derive blocking effects of compounds. Inhibition is determined based on 7.5 min of compound incubation.", "units": {"IC50": "nM"}, "values": [{"smiles": "CN(C)[C@]1(CCc2cccc(C(F)(F)F)c2)CCCN(c2ccc(S(=O)(=O)Nc3ccncn3)c(F)c2)C1", "note": "(single isomer, unassigned) [Example 1]", "IC50": 6.88}, {"smiles": "CN(C)[C@@]1(CCc2cccc(C(F)(F)F)c2)CCCN(c2ccc(S(=O)(=O)Nc3ccncn3)c(F)c2)C1", "note": "(single isomer, unassigned) [Example 2, formate]", "IC50": 601}, {"smiles": "CN[C@@]1(CCc2cccc(C(F)(F)F)c2)CCCN(c2ccc(S(=O)(=O)Nc3ccncn3)c(F)c2)C1", "note": "(single isomer, unassigned) [Example 4]", "IC50": 638}, {"smiles": "CN(C)[C@@]1(CCc2ccccc2)CCCN(c2ccc(S(=O)(=O)Nc3ccncn3)c(F)c2)C1", "note": "(single isomer, unassigned) [Example 5]", "IC50": 10000}, {"smiles": "CN(C)[C@]1(CCc2ccccc2)CCCN(c2ccc(S(=O)(=O)Nc3ccncn3)c(F)c2)C1", "note": "(single isomer, unassigned) [Example 6]", "IC50": 48.9}, {"smiles": "CN(C)[C@@]1(CCc2ccc(C(F)(F)F)cc2)CCCN(c2ccc(S(=O)(=O)Nc3ccncn3)c(F)c2)C1", "note": "(single isomer, unassigned) [Example 7]", "IC50": 12.4}, {"smiles": "CN(C)[C@]1(CCc2ccc(C(F)(F)F)cc2)CCCN(c2ccc(S(=O)(=O)Nc3ccncn3)c(F)c2)C1", "note": "(single isomer, unassigned) [Example 8]", "IC50": 2070}, {"smiles": "CN(C)[C@@]1(CCc2cccc(C(F)(F)F)c2)CCCN(c2cc(F)c(S(=O)(=O)Nc3ccncn3)cc2Cl)C1", "note": "(single isomer, unassigned) [Example 11]", "IC50": 742}, {"smiles": "CN(C)[C@]1(CCc2cccc(C(F)(F)F)c2)CCCN(c2cc(F)c(S(=O)(=O)Nc3ccncn3)cc2Cl)C1", "note": "(single isomer, unassigned) [Example 12]", "IC50": 51.5}, {"smiles": "CN(C)[C@@]1(CCc2cccc(C(F)(F)F)c2)CCCN(c2ccc(S(=O)(=O)Nc3nccs3)c(F)c2)C1", "note": "(single isomer, unassigned) [Example 13]", "IC50": 1.53}, {"smiles": "CN(C)[C@]1(CCc2cccc(C(F)(F)F)c2)CCCN(c2ccc(S(=O)(=O)Nc3nccs3)c(F)c2)C1", "note": "(single isomer, unassigned) [Example 14]", "IC50": 58.7}, {"smiles": "CN(C)[C@@]1(CCc2cccc(C(F)(F)F)c2)CCCN(c2cc(F)c(S(=O)(=O)Nc3ccncn3)c(F)c2)C1", "note": "(single isomer, unassigned) [Example 15]", "IC50": 288}, {"smiles": "CN(C)[C@]1(CCc2cccc(C(F)(F)F)c2)CCCN(c2cc(F)c(S(=O)(=O)Nc3ccncn3)c(F)c2)C1", "note": "(single isomer, unassigned) [Example 16]", "IC50": 1.41}, {"smiles": "CN(C)[C@@]1(CCc2cccc(C(F)(F)F)c2)CCCN(c2cc(F)c(S(=O)(=O)Nc3ccncn3)c(Cl)c2)C1", "note": "(single isomer, unassigned) [Example 17]", "IC50": 314}, {"smiles": "CN(C)[C@]1(CCc2cccc(C(F)(F)F)c2)CCCN(c2cc(F)c(S(=O)(=O)Nc3ccncn3)c(Cl)c2)C1", "note": "(single isomer, unassigned) [Example 18]", "IC50": 1.83}, {"smiles": "CN(C)[C@@]1(CCc2ccc(Cl)c(C(F)(F)F)c2)CCCN(c2ccc(S(=O)(=O)Nc3ccncn3)c(F)c2)C1", "note": "(single isomer, unassigned) [Example 19]", "IC50": 60.4}, {"smiles": "CN(C)[C@]1(CCc2ccc(Cl)c(C(F)(F)F)c2)CCCN(c2ccc(S(=O)(=O)Nc3ccncn3)c(F)c2)C1", "note": "(single isomer, unassigned) [Example 20, formate]", "IC50": 2.74}, {"smiles": "O=S(=O)(Nc1ccncn1)c1ccc(N2CCC[C@](CCc3cccc(C(F)(F)F)c3)(N3CCC3)C2)cc1F", "note": "(single isomer, unassigned) [Example 21]", "IC50": 3180}, {"smiles": "O=S(=O)(Nc1ccncn1)c1ccc(N2CCC[C@@](CCc3cccc(C(F)(F)F)c3)(N3CCC3)C2)cc1F", "note": "(single isomer, unassigned) [Example 22]", "IC50": 84.4}, {"smiles": "O=S(=O)(Nc1ccncn1)c1ccc(N2CCC[C@](CCc3cccc(C(F)(F)F)c3)(N3CCCC3)C2)cc1F", "note": "(single isomer, unassigned) [Example 23]", "IC50": 8.62}, {"smiles": "O=S(=O)(Nc1ccncn1)c1ccc(N2CCC[C@@](CCc3cccc(C(F)(F)F)c3)(N3CCCC3)C2)cc1F", "note": "(single isomer, unassigned) [Example 24]", "IC50": 439}, {"smiles": "O=S(=O)(Nc1ccncn1)c1ccc(N2CCC[C@](CCc3cccc(C(F)(F)F)c3)(N3CCCCC3)C2)cc1F", "note": "(single isomer, unassigned) [Example 25, formate]", "IC50": 312}, {"smiles": "O=S(=O)(Nc1ccncn1)c1ccc(N2CCC[C@@](CCc3cccc(C(F)(F)F)c3)(N3CCCCC3)C2)cc1F", "note": "(single isomer, unassigned) [Example 26, formate]", "IC50": 19.5}, {"smiles": "CN(C)CCN(C)[C@@]1(CCc2cccc(C(F)(F)F)c2)CCCN(c2ccc(S(=O)(=O)Nc3ccncn3)c(F)c2)C1", "note": "(single isomer, unassigned) [Example 27, formate]", "IC50": 2150}, {"smiles": "CN(C)CCN(C)[C@]1(CCc2cccc(C(F)(F)F)c2)CCCN(c2ccc(S(=O)(=O)Nc3ccncn3)c(F)c2)C1", "note": "(single isomer, unassigned) [Example 28, formate]", "IC50": 8.08}, {"smiles": "CN1CC(CN(C)[C@@]2(CCc3cccc(C(F)(F)F)c3)CCCN(c3ccc(S(=O)(=O)Nc4ccncn4)c(F)c3)C2)C1", "note": "(single isomer, unassigned) [Example 29]", "IC50": 2.66}, {"smiles": "CN1CC(CN(C)[C@]2(CCc3cccc(C(F)(F)F)c3)CCCN(c3ccc(S(=O)(=O)Nc4ccncn4)c(F)c3)C2)C1", "note": "(single isomer, unassigned) [Example 30, formate]", "IC50": 13.5}, {"smiles": "CN(C)[C@@]1(CCc2cc(C(F)(F)F)ccc2Cl)CCCN(c2cc(F)c(S(=O)(=O)Nc3ccncn3)c(F)c2)C1", "note": "(single isomer, unassigned) [Example 32]", "IC50": 425}, {"smiles": "CN(C)[C@]1(CCc2cc(C(F)(F)F)ccc2Cl)CCCN(c2cc(F)c(S(=O)(=O)Nc3ccncn3)c(F)c2)C1", "note": "(single isomer, unassigned) [Example 33, formate]", "IC50": 1.89}, {"smiles": "CN1CC(N(C)[C@@]2(CCc3cccc(C(F)(F)F)c3)CCCN(c3ccc(S(=O)(=O)Nc4ccncn4)c(F)c3)C2)C1", "note": "(single isomer, unassigned) [Example 34]", "IC50": 1.82}, {"smiles": "CN1CCC(N(C)[C@@]2(CCc3cccc(C(F)(F)F)c3)CCCN(c3ccc(S(=O)(=O)Nc4ccncn4)c(F)c3)C2)CC1", "note": "(single isomer, unassigned) [Example 36]", "IC50": 2690}, {"smiles": "CN1CCC(N(C)[C@]2(CCc3cccc(C(F)(F)F)c3)CCCN(c3ccc(S(=O)(=O)Nc4ccncn4)c(F)c3)C2)CC1", "note": "(single isomer, unassigned) [Example 37, formate]", "IC50": 7.22}, {"smiles": "CN(C)[C@@]1(CCc2cccc(C(F)(F)F)c2)CCCN(c2cc(F)c(S(=O)(=O)Nc3ccncn3)cc2F)C1", "note": "(single isomer, unassigned) [Example 38]", "IC50": 28.8}, {"smiles": "CN(C)[C@]1(CCc2cccc(C(F)(F)F)c2)CCCN(c2cc(F)c(S(=O)(=O)Nc3ccncn3)cc2F)C1", "note": "(single isomer, unassigned) [Example 39]", "IC50": 9110}, {"smiles": "CN(C)[C@]1(CCc2cccc(C(F)(F)F)c2Cl)CCCN(c2cc(F)c(S(=O)(=O)Nc3ccncn3)c(F)c2)C1", "note": "(single isomer, unassigned) [Example 41]", "IC50": 1.07}, {"smiles": "CN(C)[C@@]1(CCc2cc(Cl)cc(C(F)(F)F)c2)CCCN(c2cc(F)c(S(=O)(=O)Nc3ccncn3)c(F)c2)C1", "note": "(single isomer, unassigned) [Example 42]", "IC50": 52}, {"smiles": "CN1CC[C@@H](N(C)[C@@]2(CCc3cccc(C(F)(F)F)c3)CCCN(c3cc(F)c(S(=O)(=O)Nc4ccncn4)c(F)c3)C2)C1", "note": "(single isomer, unassigned) [Example 44]", "IC50": 195}, {"smiles": "CN1CC[C@H](N(C)[C@@]2(CCc3cccc(C(F)(F)F)c3)CCCN(c3cc(F)c(S(=O)(=O)Nc4ccncn4)c(F)c3)C2)C1", "note": "(single isomer, unassigned) [Example 45]", "IC50": 1.69}, {"smiles": "CN(C)[C@@]1(CCc2ccc(C(F)(F)F)c(Cl)c2)CCCN(c2cc(F)c(S(=O)(=O)Nc3ccncn3)c(F)c2)C1", "note": "(single isomer, unassigned) [Example 50]", "IC50": 504}, {"smiles": "CN(C)[C@]1(CCc2ccc(C(F)(F)F)c(Cl)c2)CCCN(c2cc(F)c(S(=O)(=O)Nc3ccncn3)c(F)c2)C1", "note": "(single isomer, unassigned) [Example 51]", "IC50": 1.03}, {"smiles": "CN(C)[C@@]1(CCc2cccc(C(F)(F)F)c2)CCCN(c2cc(F)c(S(=O)(=O)Nc3ncccn3)c(F)c2)C1", "note": "(single isomer, unassigned) [Example 52]", "IC50": 569}, {"smiles": "CN(C)[C@]1(CCc2cccc(C(F)(F)F)c2)CCCN(c2cc(F)c(S(=O)(=O)Nc3ncccn3)c(F)c2)C1", "note": "(single isomer, unassigned) [Example 53]", "IC50": 9.23}]}]}
